Measurements from a melting point compilation (Tetko et al.).

Row | melting point | SMILES
1 | 162 to 163 °C | ON=CC1=C(/C=C/c2ccccc2)CCC1
2 | 118 °C | COc1ccc(-c2ccccc2)cc1NC(=O)C(F)(F)C(F)(F)C(F)(F)C(F)(F)C(F)(F)C(F)(F)C(F)(F)C(F)(F)F
3 | 270 °C | NS(=O)(=O)c1cc2c(cc1Cl)NC(C(Cl)Cl)NS2(=O)=O (centres undefined)
4 | 130 °C | NS(=O)(=O)c1ccc(S(=O)(=O)CCCO)c(F)c1
5 | 28 to 30 °C | Cc1ccc(F)c([N+](=O)[O-])c1
6 | 246 to 248 °C | CC(=O)c1c(C)nc2cc3nc(C)c(C(C)=O)c(C)c3cc2c1C
7 | 108 °C | Cc1cnccc1N
8 | 127 to 131 °C | NCc1ccccc1O
9 | 86 °C | CSc1ccc(O)cc1
10 | 110 °C | CC(C)OC(=O)C1(S(=O)(=O)c2ccc([N+](=O)[O-])cc2)CCCCC1
11 | 118 to 119 °C | N#CCc1ccc(Oc2ccc([N+](=O)[O-])cn2)cc1
12 | 207 to 210 °C | O=C1OC(=O)c2ccc(Cl)c3cccc1c23
13 | 114 to 115 °C | ClCc1cc2ccccc2nc1Cl
14 | 111 °C | CC(=O)Nc1cc(Cl)c(F)cc1[N+](=O)[O-]
15 | 138 °C | COc1ccc2c(c1)N(CC(C)CN1CCC(O)CC1)c1ccccc1S2 (centres undefined)
16 | 78 °C | CC1(O)Cc2ccccc21 (centres undefined)

Row | melting point | SMILES
17 | -43.1 °C | CCCCCCC(C)(C)S
18 | 97 to 99 °C | O=C(O)CCc1ccc(Cl)c(Cl)c1
19 | 8 to 9 °C | FC(F)(F)c1cnc(Cl)c(Cl)c1
20 | 30.5 °C | CCCCCCCCCCCC(C)=O
21 | 177 °C | C(#Cc1ccc(C#Cc2ccccc2)cc1)c1ccccc1
22 | 196 to 198 °C | NC(=O)c1sc(NCc2ccccc2)nc1N
23 | 166 °C | COc1cc(C2OCC3C(c4ccc(OC(C)=O)c(OC)c4)OCC23)ccc1OC(C)=O (centres undefined)
24 | 49 to 51 °C | OCc1ccc(-c2ccccn2)cc1
25 | 130 °C | O=C1OS(=O)(=O)c2ccccc21
26 | 82 °C | O=C(c1ccccc1)c1ccc(OCc2ccccc2)cc1
27 | 150 °C | CC(=O)OC[C@H]1O[C@@H](OC(C)=O)[C@H](NC(=O)OCc2ccccc2)[C@@H](OC(C)=O)[C@@H]1OC(C)=O
28 | 146 °C | CCOC(=O)C(Cl)(Cc1cc(CC(Cl)(C(=O)OCC)C(=O)OCC)c([N+](=O)[O-])cc1[N+](=O)[O-])C(=O)OCC
29 | 327 °C | CC1=C(C(=O)O)N2C(=O)C(NC(=O)C(N)c3ccccc3)C2SC1 (centres undefined)
30 | 5 °C | OCc1ccccn1
31 | 139 °C | Nc1cc([N+](=O)[O-])ccc1Br
32 | 290 to 292 °C | Cc1c(C(=O)O)sc2ccc(Cl)cc12

The next lines start with the molecule.

Row | SMILES | melting point
33 | CCOC(=O)CC(=O)C=P(c1ccccc1)(c1ccccc1)c1ccccc1 | 101 to 106 °C
34 | C/C(=N\c1cccc2cccc(N)c12)c1c(O)c2ccccc2n(-c2ccccc2)c1=O | > 300 °C
35 | O=c1c2cc(F)ccc2nc(-n2cncn2)n1-c1ccc(Cl)cc1Cl | 192 °C
36 | CC(C)(C)N(NC(=O)c1ccc(Cl)cc1)C(=O)c1ccccc1 | 200 °C
37 | NC(=O)c1sccc1Cl | 105 to 107 °C
38 | COC(=O)c1sc(Br)c(Br)c1O | 129 to 131 °C
39 | O=[N+]([O-])c1cc(C(F)(F)F)ccc1N1CCOCC1 | 34 to 36 °C
40 | Cc1ccc(/C=C(\C(N)=O)c2nc3ccccc3s2)cc1 | 148 °C
41 | Cc1ccc(CCCC(=O)O)cc1 | 57 °C
42 | N#Cc1ccccc1CCl | 61 °C
43 | CCNc1nc2c(cc1C(=O)OC)c(=O)oc1ccccc12 | 210 °C
44 | CNC(C)C(O)c1ccc(O)cc1 (centres undefined) | 153 °C
45 | O=C(O)c1ccc(O)c(O)c1O | 221 °C
46 | O=[N+]([O-])c1sc2ccccc2c1Br | 165 to 167 °C
47 | NNC(=S)Nc1ccc(Cl)cc1Cl | 169 °C
48 | COc1ccc(Br)cc1C=O | 116 °C

Row | SMILES | melting point
49 | Cc1csc(C(N)=O)c1 | 115 to 117 °C
50 | c1ccc(-c2ccc3c4c(c5c(c3c2)CCCC5)CCCC4)cc1 | 136 °C
51 | O=C(COc1ncn(-c2ccc(Cl)cc2)n1)NNC(=S)NCc1ccccc1 | 133 to 135 °C
52 | O=C(O)c1cc(I)cc(I)c1I | 223 to 228 °C
53 | OCCN1CCN(c2nccc(C(F)(F)F)n2)CC1 | 70 to 71 °C
54 | O=C(CC(=O)c1cc(Br)ccc1O)c1ccccc1 | 100 to 103 °C
55 | CCOc1ccc(C(C)O)cc1 (centres undefined) | 47 °C
56 | COc1ccc(C(=O)C(=O)c2ccc(OC)cc2)cc1 | 131 to 134 °C
57 | COc1ccc(O)cc1C(C)(C)C | 48 °C
58 | COc1ccc(Br)cc1[N+](=O)[O-] | 87 to 88 °C
59 | Cc1ccc2[nH]c(C)cc2c1 | 115 °C
60 | Cc1oc(C(C)(C)C)cc1C(=O)Cl | 41 to 44 °C
61 | Cc1ccc(C(=O)OC(C(=O)O)C(OC(=O)c2ccc(C)cc2)C(=O)O)cc1 (single isomer, unassigned; (+)) | 165 to 167 °C
62 | NC(=O)NN=Cc1ccc([N+](=O)[O-])cc1 | 217 °C
63 | COc1ccc(C(N)=O)cc1N | 158 °C
64 | CCCCCCCCCCCC(=O)CC | 34 °C
